Structures can show the parent of a compound that is named as a salt.
How the values were obtained:
[1] = molecular target: T1, human S1P1 (Homo sapiens, UniProt P21453); test: S1P1 Binding Assay (33P-S1P radioligand competition, CHO cell membranes); settings: membranes from CHO cells expressing human S1P1; 0.03 nM 33P-S1P; 60 min room temperature
T1 construct: expressed in transfected cells; host or cells: CHO cells
Procedure: Membranes were prepared from CHO cells expressing human S1P1. Cells were dissociated in buffer containing 20 mM HEPES, pH 7.5, 50 mM NaCl, 2 mM EDTA and Protease Inhibitor cocktail (Roche), and disrupted on ice using the Polytron homogenizer. The homogenate was centrifuged at 20,000 rpm (48,000 g) and the supernatant was discarded. The membrane pellets were resuspended in buffer containing 50 mM HEPES, pH 7.5, 100 mM NaCl, 1 mM MgCl2, 2 mM EDTA and stored in aliquots at −80° C. after protein concentration determination.
Membranes ([…]) and 0.03 nM final concentration of ^33P—S1P ligand (1 mCi/ml, American Radiolabeled Chemicals) were added to the compound plates. Binding was performed for 60 min at room temperature, terminated by collecting the membranes onto GF/B filter plates, and radioactivity was measured by TOPCOUNT®. The competition data of the test compounds over a range of concentrations was plotted as percentage inhibition of radioligand specific binding. The IC50 is defined as the concentration of competing ligand needed to reduce specific binding by 50%.
Compounds of the present invention and Comparative Compound A were tested in the S1P1 binding assay described hereinabove and the results rounded to two digits, shown in Table A were obtained. In some instances, the value is an average of multiple experiments where N is the number of experiments conducted that provided satisfactory dose response curves. When more than one batch of an example was tested, the value presented is from the batch which allowed a comparison of GTPγS S1P1 and GTPγS S1P3 in Method A (Data shown in Table B). Data was not averaged across different batches of an example compound.

[2] = molecular target: T2, S1P1 (membranes from S1P1/CHO cells) (Homo sapiens, UniProt P21453); test: Method A: Receptor [35S] GTPγS Binding Assay, S1P1; format: biochemical; settings: for EC50: Method A, S1P1/CHO membranes; for GTPγS S1P3/S1P1 (Method A): ratio of GTPγS S1P3 EC50 to GTPγS S1P1 EC50, Method A
T2 construct: expressed in transfected cells; host or cells: S1P1/CHO cells
Procedure: (§1) Method A: Receptor [35S] GTPγS Binding Assays
(§2) Compounds were loaded in a 384 Falcon v-bottom plate (0.5 μl/well in a 3-fold dilution). Membranes prepared from S1P1/CHO cells or EDG3-Gal5-bla HEK293T cells were added to the compound plate (40 μl/well, final protein 3 μg/well) with MULTIDROP®. [^35S]GTP (1250 Ci/mmol, Perkin Elmer) was diluted in assay buffer: 20 mM HEPES, pH 7.5, 10 mM MgCl2, 150 mM NaCl, 1 mM EGTA, 1 mM DTT, 10 μM GDP, 0.1% fatty acid free BSA, and 10 μg/ml Saponin to 0.4 nM. 40 μl of the [^35S] GTP solution was added to the compound plate with a final concentration of 0.2 nM. The reaction was kept at room temperature for 45 min. At the end of incubation, all the mixtures in the compound plate were transferred to a 384 well FB filter plates via GPCR robot system. The filter plate was washed with water 4 times by using the modified manifold Embla plate washer and dried at 60° C. for 45 min. 30 μA of MicroScint 20 scintillation fluid was added to each well for counting at Packard TOPCOUNT®. EC50 is defined as the agonist concentration that corresponds to 50% of the Ymax (maximal response) obtained for each individual compound tested.
(§3) Compounds of the present invention and Comparative Compound A were tested in the Receptor [35S] GTPγS Binding Assays (Method A) and Receptor [35S] In some instances, the value is an average of multiple experiments where N is the number of experiments conducted that provided satisfactory dose response curves. When more than one batch of an example was tested, the value presented is from a batch which allowed a comparison of GTPγS S1P1 and GTPγS S1P3 in which the most number of experiments were performed. Preferably, the same batch was examined in Method A and Method B. Data was not averaged across different batches of an example compound.

[3] = molecular target: T3, S1P3 (membranes from EDG3-Gal5-bla HEK293T cells) (Homo sapiens, UniProt Q99500); test: Method A: Receptor [35S] GTPγS Binding Assay, S1P3; format: biochemical
T3 construct: expressed in transfected cells; host or cells: EDG3-Gal5-bla HEK293T cells
Procedure: as §1, §2, §3

[4] = molecular target: T4, S1P1 (membranes from S1P1 transfected CHO cells) (Homo sapiens, UniProt P21453); test: Method B: Receptor [35S] GTPγS SPA Binding Assay, S1P1; format: biochemical; settings: for EC50: Method B SPA, S1P1 transfected CHO membranes; for GTPγS S1P3/S1P1 (Method B): ratio of GTPγS S1P3 EC50 to GTPγS S1P1 EC50, Method B
T4 construct: expressed in transfected cells; host or cells: CHO cells
Procedure: (§4) Method B: Receptor [35S] GTPγS SPA Binding Assays
(§5) Membranes prepared from S1P1 or S1P3 transfected CHO cells ([…]) were incubated in 96-well white plates (CORNING® 3693) with test compounds diluted in DMSO, in 50 μl of reaction mixture containing 7.5 μl WGA-PVT beads (20 mg/ml), and 5 μM GDP, 20 mM HEPES pH 7.4, 100 mM NaCl, 1 mM EDTA, 5 mM MgCl2, 10 μg/ml saponin, 0.1% BSA, and 1 μM leupeptin. The assay was initiated with the addition of […] of 0.2 nM [^35S]-GTPγS (1250 Ci/mmol; NEN) in assay buffer. After 90 min incubation at room temperature, spin the plate at 1000 rpm for 5 min. The bound radionuclides were measured at TOPCOUNT®, expressed as % response relative to S1P (1 μM) activation. Data was analyzed using the four parameter logistic equation in Excel. The four parameters in the equation, Y=A+((B−A)/(1+((EC50/X)^D))), are described as following: A is the Y value (agonist activity) at the bottom plateau; B is the Y value at the top plateau; EC50 is the X value (agonist concentration) when the response is halfway between bottom and top; D is Hill coefficient. Curves were not generated for compounds having Ymax values were below 50%.
as §3

[5] = molecular target: T5, S1P3 (membranes from S1P3 transfected CHO cells) (Homo sapiens, UniProt Q99500); test: Method B: Receptor [35S] GTPγS SPA Binding Assay, S1P3; format: biochemical
T5 construct: expressed in transfected cells; host or cells: CHO cells
Procedure: as §4, §5, §3

T3 sequence (Q99500 whole entry): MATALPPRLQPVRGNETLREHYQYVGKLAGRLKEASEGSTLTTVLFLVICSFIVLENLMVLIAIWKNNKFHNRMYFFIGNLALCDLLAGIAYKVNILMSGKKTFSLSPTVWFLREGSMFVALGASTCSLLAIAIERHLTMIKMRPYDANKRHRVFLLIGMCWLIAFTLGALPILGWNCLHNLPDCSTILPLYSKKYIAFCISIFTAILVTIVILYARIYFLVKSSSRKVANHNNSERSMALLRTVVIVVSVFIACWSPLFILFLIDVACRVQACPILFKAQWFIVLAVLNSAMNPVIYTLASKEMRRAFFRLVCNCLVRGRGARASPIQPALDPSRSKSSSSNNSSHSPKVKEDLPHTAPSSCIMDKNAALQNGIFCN
T5 sequence (Q99500 whole entry): as above
T1 sequence (P21453 whole entry): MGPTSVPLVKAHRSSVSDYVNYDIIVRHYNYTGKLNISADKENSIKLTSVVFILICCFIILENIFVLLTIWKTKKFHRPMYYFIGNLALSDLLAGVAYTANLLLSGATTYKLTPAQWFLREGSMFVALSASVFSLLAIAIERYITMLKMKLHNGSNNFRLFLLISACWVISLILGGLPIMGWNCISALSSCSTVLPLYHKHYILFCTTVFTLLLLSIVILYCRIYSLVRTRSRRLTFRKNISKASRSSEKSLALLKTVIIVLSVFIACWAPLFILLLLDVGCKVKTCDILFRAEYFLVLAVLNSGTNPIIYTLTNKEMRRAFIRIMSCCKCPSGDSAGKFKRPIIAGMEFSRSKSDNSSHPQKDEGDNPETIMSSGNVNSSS
T4 sequence (P21453 whole entry): as above
T2 sequence (P21453 whole entry): as above

Structure (SMILES)	IC50 [1]	EC50 [2]	GTPγS S1P3/S1P1 (Method A) [2]	EC50 [3]	EC50 [4]	GTPγS S1P3/S1P1 (Method B) [4]	EC50 [5]
CCCc1c(-c2nc(-c3ccc(CN4CC(C(=O)O)C4)cc3)no2)noc1-c1ccccn1 [Example 3, 1-(4-(5-(4-Propyl-5-(pyridin-2-yl)isoxazol-3-yl)-1,2,4-oxadiazol-3-yl)benzyl)azetidine-3-carboxylic acid, 2,2,2-trifluoroacetic acid salt]	0.021 nM	0.82 nM	2,600	2100 nM	0.65 nM	430	280 nM
O=C(O)C1CN(Cc2ccc(-c3noc(-c4noc(-c5ccccn5)c4C(F)(F)F)n3)cc2)C1 [Example 2, 1-(4-(5-(5-(Pyridin-2-yl)-4-(trifluoromethyl)isoxazol-3-yl)-1,2,4-oxadiazol-3-yl)benzyl)azetidine-3-carboxylic acid]	0.39 nM	4.5 nM			0.34 nM	13,000	4400 nM
O=C(O)C1CN(Cc2ccc(-c3noc(-c4cc(-c5ccccc5)c(C(F)(F)F)s4)n3)cc2)C1 [Comp. A, 1-(4-(5-(4-Phenyl-5-(trifluoromethyl)thiophen-2-yl)-1,2,4-oxadiazol-3-yl)benzyl)azetidine-3-carboxylic acid, reference compound]			1.2			78	
CC(C)c1c(-c2nc(-c3ccc(CN4CC(C(=O)O)C4)cc3)no2)noc1-c1ccccn1 [Example 4, 1-(4-(5-(4-Isopropyl-5-(pyridin-2-yl)isoxazol-3-yl)-1,2,4-oxadiazol-3-yl)benzyl)azetidine-3-carboxylate, 2,2,2-trifluoroacetic acid salt]	0.18 nM	39 nM	179	7000 nM	1 nM		

Next, values leading:

IC50 [1]	EC50 [2]	GTPγS S1P3/S1P1 (Method A) [2]	EC50 [3]	EC50 [4]	GTPγS S1P3/S1P1 (Method B) [4]	EC50 [5]	Structure (SMILES)
0.051 nM	3.7 nM	513	1900 nM	0.61 nM			CCc1c(-c2nc(-c3ccc(CN4CC(C(=O)O)C4)cc3)no2)noc1-c1ccccn1 [Example 5, 1-(4-(5-(4-Ethyl-5-(pyridin-2-yl)isoxazol-3-yl)-1,2,4-oxadiazol-3-yl)benzyl)-azetidine-3-carboxylic acid, 2,2,2-trifluoroacetic acid salt]
0.53 nM	3.3 nM	5,800	19000 nM				COC(=O)c1c(-c2ccccn2)noc1-c1nc(-c2ccc(CN3CC(C(=O)O)C3)cc2)no1 [Example 7, 1-(4-(5-(4-(Methoxycarbonyl)-3-(pyridin-2-yl)isoxazol-5-yl)-1,2,4-oxadiazol-3-yl)benzyl)azetidine-3-carboxylic acid]
0.019 nM				0.082 nM	5,200	430 nM	CCCc1c(-c2ccccn2)noc1-c1nc(-c2ccc(CN3CC(C(=O)O)C3)cc2)no1 [Example 6, 1-(4-(5-(4-Propyl-3-(pyridin-2-yl)isoxazol-5-yl)-1,2,4-oxadiazol-3-yl)benzyl)-azetidine-3-carboxylic acid, 2,2,2-trifluoroacetic acid salt]
6.5 nM	450 nM	5.1	2300 nM	68 nM			O=C(O)C1CN(Cc2ccc(-c3noc(-c4cc(-c5ccccn5)no4)n3)cc2)C1 [Example 8]

Reference: patent US8404672B2, “Substituted heterocyclic compounds” (Bristol-Meyers Squibb Company, priority 2009, dated 2013)
